{
  "source": "patent US12173276B2",
  "about": "(Alliance for Sustainable Energy, LLC, priority 2021, dated 2024)",
  "system": "P. renovo",
  "assay": "plating assay to determine phosphorus source utilization capacity",
  "format": "cell-based, Picochlorum renovo",
  "conditions": "wild-type P. renovo, agar plates, 0.313 mM phosphite addition, 5-day outgrowth",
  "experimental": "FIG. 1 depicts a plating assay to determine phosphorus source utilization capacity in P. renovo.\nMicroalgae were cultivated under constant illumination at […] of light, 2% CO2, and constant temperature of 33° C. These conditions were utilized to generate seed cultures for transformation and outgrowth of transformants to generate clonal isolates on agar plates. Media was comprised of a modified f/2 recipe, as described previously. For phosphorus source utilization analyses, agar plates were prepared as described previously, utilizing 8.75 g/L salinity, via dilution of seawater. […] Approximately 4.75×10^8 early log phase cells were plated and incubated under the above conditions; plates were imaged after 5 days of growth.",
  "data": [
    {"smiles": "O=[PH](O)O", "note": "[phosphite, Sodium phosphite dibasic pentahydrate]", "values": [
      {"measurement": "bleaching compared to control with no added phosphorus source", "result": "noticeable bleaching occurred"},
      {"measurement": "growth with phosphite as the sole phosphorus source", "result": "no growth was observed"}
    ]}
  ]
}
